In patent publication US20090176786A1, “Benzoylurea Compounds and Use Thereof” (priority 2005, published 2009):

Key:
Type in all cases: in vivo
[1] = system: Plutella xylostella; test: Test Example 2: cabbage root immersion (systemic), dead pest rate of Plutella xylostella larvae; conditions: Plutella xylostella, 120 h; test concentration 25 ppm; root immersion 5 days; 10 second-instar larvae; after 5 days at 24° C.
Description: In 0.25 mL of a mixture solution of Sorgen TW-20 (manufactured by Daiichi Industries Pharmaceuticals, Co., Ltd.) and acetone (mixture volume ratio; Sorgen TW-20:acetone=1:19), 2.5 mg of the present compound (1), (2), (3), (4), (7), (10), (11), (12), (16), (18), (19), (20), (21), (22), (25), (30), (36), (37), (41), (42), (52), (54), (56), (57), (60), (62), (105) or (109) was dissolved. The solution was diluted with ion-exchanged water so that the active ingredient concentration became to a predetermined concentration to prepare a pesticidal solution for test of the test compound. The root part of cabbages in the fourth leaf period were washed with tap water to remove soils, and then immersed in the pesticidal solution for test. After 5 days from immersion of the root part, the root part was removed, and the leaves and stems were put in a cup (volume; 180 mL). In the cup 10 second-instar larvae of Plutella xylostella were released, and the cup was stored at 24° C. After 5 days, the number of dead pests was counted, and the dead pest rate was calculated by the following equation:
(§1) Dead pest rate(%)=(the number of dead pests/the number of tested pests)×100
The test concentrations of the other present compounds were 25 ppm.

[2] = system: Coptotermes formosanus; test: Test Example 8: filter paper bait test, control rate of Coptotermes formosanus; conditions: filter paper bait treated with 1 mL of 10 mg/mL acetone solution; 20 ergates; 6 weeks in a dark place
Description: A filter paper having a diameter of 33 mm (No. 1026 manufactured by Toyo Filter Paper, Co., Ltd.) was treated with acetone solution (1 mL) of 10 mg/mL of the present compounds (1) or (12) using a pipette, and dried at room temperature. Hereinafter, the resulting filter paper is referred to as a filter paper bait. 4% agarose was poured into a plastic petri dish having a diameter of 9 cm to make the thickness about 5 mm, and solidified by leaving at rest at room temperature. One circular hole having a diameter of 35 mm (hereinafter, referred to as a well) was made in the solidified agarose. One filter paper bait was put into the well. Then, after 20 ergates of Coptotermes formosanus were released in the above petri dish, the petri dish was capped, and sealed with a parafilm. After storing in a dark place for 6 weeks, the petri dish was opened. The control rate was calculated by observing the life and death of the Coptotermes formosanus in the petri dish.

[3] = system: Spondoptela litura; test: Test Example 3: treated artificial diet (Insecta LF), dead pest rate of Spondoptela litura larvae; conditions: 144 h, 2 mL on Insecta LF diet, 5 fourth-instar larvae, after 6 days
Description: Ten parts of the present compound (1) to (5), (7) to (13), (18) to (33), (35) to (49), (52) to (56), (58) to (61), (71), (73) to (77), (79), (80), (82), (83), (93), (94), (95), (96), (97), (100) to (109), (111), (112), (115), (117), (119), (121), or (123) to (133), 35 parts of white carbon containing 50 parts of polyoxyethylene alkyl ether sulfate ammonium salt, and 55 parts of water were mixed, and finely ground by a wet grinding method to obtain a preparation. The obtained preparation was diluted with water so that the active ingredient concentration became to 500 ppm to prepare a pesticidal solution for test. On the bottom of a polyethylene cup having a diameter of 5.5 cm, a filter paper having a diameter of 5.5 cm was placed, on which Insecta LF (Nippon Agriculture Industries, Co., Ltd.) sliced in a thickness of 6 mm and further cut half was laid, and to which 2 mL of the above-described pesticidal solution for test was added. After air-dried, 5 fourth-instar larvae of Spondoptela litura were released in the cup, and the cup was capped. After 6 days, the number of dead pests was counted, and the dead pest rate was calculated by the following equation:
as §1

[4] = system: Plutella xylostella; test: Test Example 7: cabbage root immersion, Plutella xylostella, against comparative compound D; conditions: 25 ppm; root immersion 5 days; 10 second-instar larvae; after 5 days at 24° C.
Description: (§2) In 0.25 mL of a mixed solution of Tween-20 and acetone (mixture volume ratio: Tween-20:acetone=1:19), 2.5 mg of the present compound (94) or comparative compound D was dissolved. The solution was diluted with ion-exchanged water so that the active ingredient concentration became to the predetermined concentration (25 ppm) to prepare a pesticidal solution for test of the test compound. The root part of cabbages in the fourth leaf period was washed with tap water to remove soils, and then immersed in the pesticidal solution for test. After 5 days from immersion of the root part, the root part was removed, and the leaves and stems were put in a ice cream cup (volume; 180 mL). In the cup 10 second-instar larvae of Plutella xylostella were released, and the cup was stored at 24° C. After 5 days, the number of dead pests was countered, and the dead pest rate was calculated by the following equation:
as §1

[5] = system: Plutella xylostella; test: Test Example 1: spray on cabbage, dead pest rate of Plutella xylostella larvae; conditions: Plutella xylostella, 120 h; 500 ppm spray solution, 20 ml/cup on cabbage; 5 second-instar larvae; after 5 days
Description: Ten parts of the present compound (1), (2), (5) to (19), (21) to (34), (36) to (61), (63), (64), (68) to (71), (74), (76) to (78), (82) to (83), (89), (93), (94), (97), (99), (102) to (110), (111), (115), (116) (117) to (120) or (123) to (134); 35 parts of white carbon containing 50 parts of polyoxyethylene alkyl ether sulfate ammonium salt; and 55 parts of water were mixed, and finely ground by a wet grinding method to obtain a 10% flowable agent. The obtained flowable agent was diluted with water so that the active ingredient concentration became to 500 ppm to prepare a spray solution for test.
Cabbages were planted in polyethylene cups, and grown until the third true leaf or the fourth true leaf was developed. The spray solution for test prepared above was sprayed at a rate of 20 ml/cup on the cabbages.
After the pesticidal solution sprayed onto the cabbages was dried, 5 second-instar larvae of Plutella xylostella were put on the cabbages. After 5 days, the number of dead Plutella xylostella was examined, and a dead pest rate was calculated by the following equation:
as §1

[6] = system: Plutella xylostella; test: Test Example 5: cabbage root immersion, Plutella xylostella, against comparative compounds A and B; conditions: 25 ppm; root immersion 5 days; 10 second-instar larvae; after 5 days at 24° C.
Description: as §2, with “(1), (4), (10), (82),” for “(94) or”, “A or B” for “D”, “a” for “a ice cream”
as §1

| Compound | pest or weed control at 25 ppm [1] [%] | control rate [2] [%] | also measured |
| --- | --- | --- | --- |
| CN(C(=O)c1c(F)cccc1F)C(=O)N(C)c1ccc(SC(F)(F)F)cc1F [(10)] | 100 | 65 | – |
| CN(C(=O)c1c(F)cccc1F)C(=O)N(C)c1ccc(SC(F)(F)C(F)F)cc1F [(12)] | 100 | 60 | – |
| CN(C(=O)NC(=O)c1c(F)cccc1F)c1ccc(SC(F)(F)C(F)F)cc1 [(94)] | – | – | pest or weed control at 500 ppm [3]: 100%; dead pest rate [4]: 100%; pest or weed control at 500 ppm [5]: 100% |
| O=C(NC(=O)c1c(F)cccc1F)Nc1ccc(SC(F)(F)F)cc1F [comparative compound A] | – | – | dead pest rate [6]: 5% |
